Tests used:
L. monocytogenes 15313 = assay: spot on lawn assay; type: cell-based; conditions: 10-μl spots
Excerpt: For each antimicrobial solution concentration, a spot on lawn assay procedure was first conducted on agar plates to assess the efficacy of the solution to colony control. In this procedure, the TSA agar plates were inoculated with L. monocytogenes 15313 at a level of 10E+08 cfu/ml through an Autoplate 4000 model from Spiral Biotech. A volumetric pipette pump was then used to place three 10-μl spots of an antimicrobial solution onto appropriate regions of the test plate. Separately, another volumetric pipette pump was used to place 10 μl of a control solution (i.e., the solution in which the antimicrobial agent is dissolved). Three such agar plates were prepared for each concentration of antimicrobial solution. After spot placement, the plates were allowed to stand undisturbed for 10 to 30 minutes in a laminar flow hood before incubation at 37° C. for at least 24 hours. The resultant zones of inhibition were measured using a dial caliper (Brown and Sharpe, accuracy to 0.02 mm) with each zone measured twice on a 90° axis. Three such spots (for the antimicrobial treated solution) were so measured per plate, with three plates per condition to provide 18 such measurements. […] In the film on lawn procedure, 15 mm×15 mm films of example 1 and 2 were placed in freshly made up solutions for 12 to 24 hours at room temperature and then removed with a pair of flame-sterilized ocular forceps, allowed to drip dry, then placed for 60 seconds on a sterile Petri-dish before positioning on agar plates in a film on lawn assay procedure. The TSA agar plates had been prepared by inoculating with L. monocytogenes at a level of 10E+08 cfu/ml through an Autoplate 4000 model from Spiral Biotech. […] The resultant zones of inhibition were measured using a dial caliper (Brown and Sharpe, accuracy to 0.02 mm) with each zone measured twice on a 90° axis. Two such films (for the antimicrobial treated film) were so measured per plate, with three plates per condition to provide 12 such measurements. No zones of inhibition were recorded for the control films.

L. monocytogenes = assay: film on lawn assay; type: cell-based
Protocol: Films of Example 1 and Example 2 at 150μ in thickness were cut into 15 mm by 15 mm samples placed onto aluminum foil, and exposed to UV light in a laminar flow hood for 4 to 7 minutes. The samples were then transferred from foil to various solutions as described in Table 6 to soak for 12 to 24 hours at room temperature.
For each antimicrobial solution concentration, a spot on lawn assay procedure was first conducted on agar plates to assess the efficacy of the solution to colony control. In this procedure, the TSA agar plates were inoculated with L. monocytogenes 15313 at a level of 10E+08 cfu/ml through an Autoplate 4000 model from Spiral Biotech. A volumetric pipette pump was then used to place three 10-μl spots of an antimicrobial solution onto appropriate regions of the test plate. Separately, another volumetric pipette pump was used to place 10 μl of a control solution (i.e., the solution in which the antimicrobial agent is dissolved). Three such agar plates were prepared for each concentration of antimicrobial solution. After spot placement, the plates were allowed to stand undisturbed for 10 to 30 minutes in a laminar flow hood before incubation at 37° C. for at least 24 hours. The resultant zones of inhibition were measured using a dial caliper (Brown and Sharpe, accuracy to 0.02 mm) with each zone measured twice on a 90° axis. Three such spots (for the antimicrobial treated solution) were so measured per plate, with three plates per condition to provide 18 such measurements. […] In the film on lawn procedure, 15 mm×15 mm films of example 1 and 2 were placed in freshly made up solutions for 12 to 24 hours at room temperature and then removed with a pair of flame-sterilized ocular forceps, allowed to drip dry, then placed for 60 seconds on a sterile Petri-dish before positioning on agar plates in a film on lawn assay procedure. The TSA agar plates had been prepared by inoculating with L. monocytogenes at a level of 10E+08 cfu/ml through an Autoplate 4000 model from Spiral Biotech. Two such films were so placed on the prepared TSA agar plates. A third 15 mm×15 mm film was soaked under the same conditions in a control solution (the solution without the antimicrobial agent) and placed in a third region of the plate. Three such plates were prepared in this manner for each concentration of antimicrobial agent. After film placement, the plates were allowed to stand undisturbed for 10 to 30 minutes in a laminar flow hood before incubation at 37° C. for at least 24 hours. The resultant zones of inhibition were measured using a dial caliper (Brown and Sharpe, accuracy to 0.02 mm) with each zone measured twice on a 90° axis. Two such films (for the antimicrobial treated film) were so measured per plate, with three plates per condition to provide 12 such measurements. No zones of inhibition were recorded for the control films.

Row | Structure (SMILES) | Group averages of Inhibition Zones (mm), Spot on Lawn Assay (L. monocytogenes 15313; 0.75 wt % in Ethanol/Water (36/63.25)) [mm] | Group averages of Inhibition Zones (mm), Spot on Lawn Assay (L. monocytogenes 15313; 1.5 wt % in Ethanol/Water (36/62.5)) [mm] | Group averages of Inhibition Zones (mm), Spot on Lawn Assay (L. monocytogenes 15313; 3.0 wt % in Ethanol/Water (36/61)) [mm] | Group averages of Inhibition Zones (mm), Film on Lawn Assay Example 1 (L. monocytogenes; 15 mm x 15 mm film of Example 1 soaked 12-24 h in 0.75 wt % in Ethanol/Water (36/63.25)) [mm] | Group averages of Inhibition Zones (mm), Film on Lawn Assay Example 2 (L. monocytogenes; 15 mm x 15 mm film of Example 2 soaked 12-24 h in 0.75 wt % in Ethanol/Water (36/63.25)) [mm] | Group averages of Inhibition Zones (mm), Film on Lawn Assay Example 1 (L. monocytogenes; film of Example 1 soaked in 1.5 wt % in Ethanol/Water (36/62.5)) [mm] | Group averages of Inhibition Zones (mm), Film on Lawn Assay Example 1 (L. monocytogenes; film of Example 1 soaked in 3.0 wt % in Ethanol/Water (36/61)) [mm] | Group averages of Inhibition Zones (mm), Film on Lawn Assay Example 2 (L. monocytogenes; film of Example 2 soaked in 1.5 wt % in Ethanol/Water (36/62.5)) [mm] | Group averages of Inhibition Zones (mm), Film on Lawn Assay Example 2 (L. monocytogenes; film of Example 2 soaked in 3.0 wt % in Ethanol/Water (36/61)) [mm] | Group averages of Inhibition Zones (mm), Film on Lawn Assay Example 1 (L. monocytogenes; film of Example 1 soaked in 5 wt % in Water (95)) | Group averages of Inhibition Zones (mm), Film on Lawn Assay Example 1 (L. monocytogenes; film of Example 1 soaked in 7.5 wt % in Water (92.5)) [mm] | Group averages of Inhibition Zones (mm), Film on Lawn Assay Example 1 (L. monocytogenes; film of Example 1 soaked in 10 wt % in Water (90)) [mm] | Group averages of Inhibition Zones (mm), Film on Lawn Assay Example 2 (L. monocytogenes; film of Example 2 soaked in 5 wt % in Water (95)) [mm] | Group averages of Inhibition Zones (mm), Film on Lawn Assay Example 2 (L. monocytogenes; film of Example 2 soaked in 7.5 wt % in Water (92.5)) [mm] | Group averages of Inhibition Zones (mm), Film on Lawn Assay Example 2 (L. monocytogenes; film of Example 2 soaked in 10 wt % in Water (90)) [mm]
1 | O=C(O)c1ccccc1 [Benzoic acid] | 7.31 ± 0.91 | 7.70 ± 0.61 | 8.64 ± 0.76 | 21.55 ± 0.77 | 23.49 ± 1.47 | 25.92 ± 1.02 | 25.76 ± 0.41 | 27.85 ± 0.96 | 27.6 ± 2.03 | – | – | – | – | – | –
2 | O=C(O)CC(O)(CC(=O)O)C(=O)O [Citric acid] | – | – | – | – | – | – | – | – | – | Slight^3 | 19.21 ± 0.25 | 21.00 ± 0.63 | 0 | 0 | 0
